Measured values as given in patent publication US10273263B2, “Pro-drug forming compounds” (priority 2013, dated 2019).

How the values were obtained:
[1] = target: human carbonic anhydrase II (hCA 2) (Homo sapiens, UniProt P00918); test: Human Carbonic Anhydrase II inhibition; assay type: biochemical; settings: read-out: hCAII (IC50 nM)
sulfatase = target: T1, sulfatase (Homo sapiens, UniProt P08842); settings: in women; cited from earlier work
T1 construct: host or cells: in vivo, women
T1 sequence (P08842 22-583): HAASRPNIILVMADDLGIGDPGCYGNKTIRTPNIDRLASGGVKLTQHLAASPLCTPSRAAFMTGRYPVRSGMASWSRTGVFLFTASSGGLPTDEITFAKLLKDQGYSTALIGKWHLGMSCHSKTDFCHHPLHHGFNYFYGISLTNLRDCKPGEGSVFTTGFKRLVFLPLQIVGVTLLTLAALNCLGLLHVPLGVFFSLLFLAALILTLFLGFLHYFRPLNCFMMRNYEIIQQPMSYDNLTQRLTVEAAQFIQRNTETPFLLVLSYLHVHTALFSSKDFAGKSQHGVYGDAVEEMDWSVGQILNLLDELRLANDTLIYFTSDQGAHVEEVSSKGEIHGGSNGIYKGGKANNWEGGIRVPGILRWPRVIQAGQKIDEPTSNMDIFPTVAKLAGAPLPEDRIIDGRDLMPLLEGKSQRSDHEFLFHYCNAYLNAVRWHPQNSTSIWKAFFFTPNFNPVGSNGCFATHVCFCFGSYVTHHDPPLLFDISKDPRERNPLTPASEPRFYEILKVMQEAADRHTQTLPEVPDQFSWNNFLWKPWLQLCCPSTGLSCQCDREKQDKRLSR

[2] = system: ovarectomized female rats; settings: compared with estradiol and ethinyl estradiol; cited from earlier work
[3] = oral biological activity: % uterine weight increase compared to vehicle; assay type: in vivo, rat; settings: Rattus norvegicus; oral, 30.0 μg
Protocol: Exemplary compounds were tested for: oral biological activity (Table 1); binding to human carbonic anhydrase II (hCA 2) (Table 2); and, for some compounds enzymatic saponification (Table 3).

Compound: C[C@]12CCC3c4ccc(OS(N)(=O)=O)cc4CCC3C1CC[C@@H]2O (stereo partly drawn) [Compound J995, (13S,17S)-17-hydroxy-13-methyl-7,8,9,11,12,13,14,15,16,17-decahydro-6H-cyclopenta[a]phenanthren-3-yl sulfamate, reference compound]
- IC50 [1]: 295 nM
- inhibition of sulfatase (sulfatase): acted as an inhibitor of sulfatase
- estrogenic activity after oral administration [2]: higher estrogenic activity after oral administration than estradiol and ethinyl estradiol
- change in vivo at 0.03 mg [3]: 203%
